Measurements from US20240373852A1, “COMPOSITION FOR ALLEVIATING DROUGHT STRESS COMPRISING AMINO ACID” (CJ CheilJedang Corporation, priority 2022, published 2024).

Tested on: Arabidopsis thaliana
Assay: Drought stress alleviation plate assay, single amino acid spray on Arabidopsis thaliana seedlings on PEG-treated medium
Assay type: in vivo
Settings: for growth and development of above- and below-ground tissues (fresh weight of above-ground tissues, root length): drought stress-induced medium (PEG 20% treated), amino acid aqueous solution 0.05% (w/w) or 0.1% (w/w) sprayed 1 ml/plate, 3 days intervals, 4 times, compared to water or A company's product (AP); for function in alleviating drought stress and promoting plant growth: laboratory condition (plate assay), conclusion from Example 1-2 and 1-3
From the text: In order to select an individual amino acid having function in alleviating drought stress among 20 kinds of amino acids (histidine, sodium glutamate, proline, threonine, tryptophan, valine, alanine, arginine, asparagine, aspartic acid, cysteine, glutamine, glycine, leucine, lysine, methionine, phenylalanine, serine, or tyrosine), Arabidopsis thaliana was trans-planted in drought stress-induced medium, and an amino acid aqueous solution comprising each amino acid (0.05% (w/w) or 0.1% (w/w)) was treated, then the fresh weight of the above-ground tissue and growth and development of the root (main root) of Arabidopsis thaliana were investigated.
Arabidopsis thaliana seeds (provided by Konkuk University plant development genomics lab) were put in a 2% Sodium hypochlorite, 0.05% Tween 20 solution and sterilized for 1 minute, then washed with water 4 times. The sterilized seeds were incubated in dark and cold (4 degrees) for 3 days.
Arabidopsis thaliana seeds were sown in a plant growth medium (½ MS; Murashige and Skoog Medium, Duchefa Biochem), and grow for 6 days in the growth chamber. The growth condition of plants is as follows: • Temperature: 23° C.; humidity: 60˜65%; light: light 16 hours/dark 8 hours
The drought stress-induced medium was prepared by the method as below.
After 24 hours, the PEG solution was removed and dried at a room temperature under a sterile condition.
6 days-old Arabidopsis thaliana seedlings grown in normal plant growth medium were transferred to the drought stress-induced medium (PEG 20% treated) or a control medium (PEG untreated).
Immediately after transfer seedlings on the drought-stress induced medium, an individual amino acid aqueous solution (0.05% (w/w) or 0.1% (w/w)) was sprayed on the plants; 1 ml/plate, 3 days intervals, for 4 times. As a control group, instead of the amino acid aqueous solution, water (DW, distilled water) or A company's drought stress-alleviating product (AP product, comprising Pro 9%, MSG 2.5%, Asp 0.9%) (Ajinomoto Fertilizers, Amino proline) was sprayed by the same method.
After that, the fresh weight, and root growth and development of Arabidopsis thaliana were investigated.

Structure (SMILES)	growth and development of above- and below-ground tissues (fresh weight of above-ground tissues, root length)	function in alleviating drought stress and promoting plant growth
C[C@H](N)C(=O)O [alanine]	excellent	positive function
N=C(N)NCCC[C@H](N)C(=O)O [arginine]	excellent	positive function
N[C@@H](CC(=O)O)C(=O)O [aspartic acid]	excellent	positive function
NC(=O)CC[C@H](N)C(=O)O [glutamine]	excellent	positive function
NCC(=O)O [glycine]	excellent	positive function
N[C@@H](Cc1c[nH]cn1)C(=O)O [histidine]	excellent	positive function
N[C@@H](Cc1ccccc1)C(=O)O [phenylalanine]	excellent	positive function
N[C@@H](CCC(=O)[O-])C(=O)[O-].[Na+].[Na+] [sodium glutamate]	excellent	positive function
N[C@@H](Cc1c[nH]c2ccccc12)C(=O)O [tryptophan]	excellent	positive function
CC(C)[C@H](N)C(=O)O [valine]	excellent	–
